This note sets out measurements from patent US10765687B2, “Methods and compounds to inhibit enveloped virus release” (Northwestern University, priority 2012, dated 2020).

The subject of one data set is COS-1 cells. The settings on record: K21 100 μM, N20 20 μM; for Cytotoxicity, average of the independent experiments: average in parentheses, DMSO 21%; for Cytotoxicity (blue cells/total cells x 100): single count, DMSO 24%, 18%. The procedure:
The standard trypan blue assay, where dead cells are blue when visualized under a light microscope, was used to determine the percent of dead cells in the culture. Briefly, cells from a well of DMSO-treated, K21-treated and N20-treated samples were dislodged from the well with a stream of 1 ml PBS, collected, pelleted at 200 rpm for 2 min, and suspended in 300 μl trypsin-EDTA, incubated at 37° C. for 30 min. A diluted cell suspension was prepared by mixing 200 μl of the trypsin-treated cell suspension and 800 μl of PBS was used for the assay. For the assay itself: from the 1 ml of diluted cell suspension, 50 μl was taken an placed on paraffin and to this was mixed in 50 μl of 0.4% Trypan Blue dye in PBS, after exactly 2 minutes later, the mixture was loaded on a hematocytometer. The hematocytometer was placed on the light microscope stage and a blue cell count and an all cells count (blue and not blue cells) obtained. Two 50 μl aliquots were counted per sample.

For a further data set, the target named is T1, WWP2 (SEQ ID NO:24) (Homo sapiens, UniProt O00308).
T1 construct: poly-His (pET28b leader with thrombin site) (N, cleaved yes); made in house; host or cells: E. coli BL21 DE3
T1 sequence (O00308 with tags, fused parts or gaps): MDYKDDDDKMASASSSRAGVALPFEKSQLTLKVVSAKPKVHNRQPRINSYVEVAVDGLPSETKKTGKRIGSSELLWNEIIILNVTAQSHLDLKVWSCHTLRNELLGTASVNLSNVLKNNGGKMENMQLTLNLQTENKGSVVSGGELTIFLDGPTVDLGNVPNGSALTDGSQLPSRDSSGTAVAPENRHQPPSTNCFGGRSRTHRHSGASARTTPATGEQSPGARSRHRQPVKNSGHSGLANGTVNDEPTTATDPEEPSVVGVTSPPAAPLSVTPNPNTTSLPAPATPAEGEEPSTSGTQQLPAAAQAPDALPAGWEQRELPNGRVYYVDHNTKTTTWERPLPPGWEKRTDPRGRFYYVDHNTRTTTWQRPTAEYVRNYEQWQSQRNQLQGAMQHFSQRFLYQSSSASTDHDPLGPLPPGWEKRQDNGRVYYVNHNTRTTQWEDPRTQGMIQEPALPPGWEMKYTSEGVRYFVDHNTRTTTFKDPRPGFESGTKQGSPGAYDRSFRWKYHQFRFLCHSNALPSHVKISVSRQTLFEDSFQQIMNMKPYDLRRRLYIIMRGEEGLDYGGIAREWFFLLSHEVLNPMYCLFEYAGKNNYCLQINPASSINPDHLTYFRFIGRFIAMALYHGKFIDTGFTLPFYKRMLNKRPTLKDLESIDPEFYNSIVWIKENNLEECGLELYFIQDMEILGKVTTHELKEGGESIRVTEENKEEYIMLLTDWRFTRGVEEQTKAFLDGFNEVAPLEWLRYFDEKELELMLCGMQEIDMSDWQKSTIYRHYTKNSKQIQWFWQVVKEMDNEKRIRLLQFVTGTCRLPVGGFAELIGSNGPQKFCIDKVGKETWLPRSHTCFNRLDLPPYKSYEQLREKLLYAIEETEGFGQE
Put plainly: Epic label-free binding assay of compounds to immobilized WWP2. The settings on record: Epic label-free binding, WWP2 as target; read-out: Kd. The method, then:
Another preferred embodiment of an in vitro screening method is depicted in FIG. 3. In this method, the ability of the candidate compound 204 to directly interact with the cellular ESCRT-linked component protein (for example, Nedd4 family of polypeptides [for example, WWP1 (SEQ ID NO:29), WWP2 (SEQ ID NO:24), Nedd4 L, among others]) or TGS101 is evaluated. According to this embodiment, a cellular ESCRT component protein 202 is preferably immobilized to a substrate 201 (for example, a microtiter plate) via a linking group 203 (for example, an amine group). The substrate preferably includes an optional reference area that provides a control to prevent non-specific interactions with non-mobilized ESCRT complex protein 202 with substrate 201. The substrate 201 is washed and irradiated with broadband light so that a baseline refractive index is measured. Test compound 204 is added to the system to permit its binding to the immobilized ESCRT component protein 202 to form a resultant associative complex 205. The substrate 201 is irradiated with broadband light again to detect a change in the wavelength of the reflected light.
High sensitivity biochemical plates (PerkinElmer Cat. No. 6057468) are used in WWP2 (SEQ ID NO:24) binding assay to maximize protein immobilization. […] Because compound stocks are in DMSO that affects the Epic label-free readout, the compound plates were prepared by Echo550 acoustic dispenser to keep DMSO content balanced for all wells. […]
The binding of compounds to WWP2 (SEQ ID NO:24) was measured on the EnSpire label-free plate reader. After 25 minutes of thermal equilibration, a baseline reading was taken on the label-free plates with protein immobilized in assay buffer. […] The final reading was taken after 25 min of thermal equilibration and over a period of 60 minutes. The label-free responses were measured as shifts in reflected wavelength and were expressed in picometers (pm). Results were analyzed using the EnSpire label-free user interface software. […]

Data set [1] deals with 293 cells.
The test system of data set [2] is 293 cells. Description: Toxicity of inhibitor concentrations to cultured cells of the VLP release assay. The settings on record: concentrations of FIG. 6A.

Values joined by “and” are separate entries in the source; they are usually repeats but may differ in a detail not shown here. Identical values can stand only once. Like-named read-outs stand apart in the source and are kept apart here.

What is called Kd is a measure of binding affinity in units of concentration. As for `Cl.NC(CO)C(=O)NNCc1ccc(O)c(O)c1O` (racemic) [Benserazide Hydrochloride, (RS)-2-amino-3-hydroxy-N′-(2,3,4-trihydroxybenzyl) propanehydrazide hydrochloride], the “Cytotoxicity, average of the independent experiments” value in the data set on COS-1 cells is recorded as “(31%)”. Also, in the data set on COS-1 cells (listed as K21, hydrochloride), the “Cytotoxicity (blue cells/total cells x 100)” value was 34% and 28%. Further, the dissociation constant (Kd) at WWP2 (SEQ ID NO:24) worked out at 7.9 µM. For the same molecule, in the data set with 293 cells [1], the “Cell toxicity of inhibitor concentrations” value was “not cell toxic”.
As to `CN(C)[C@@H]1C(O)=C(C(N)=O)C(=O)[C@@]2(O)C(=O)C3=C(O)c4c(O)cccc4[C@@](C)(O)[C@H]3[C@H](O)[C@@H]12` [Oxytetracycline, (4S,4aR,5S,5aR,6S,12aS)-4-(dimethylamino)-3,5,6,10,11,12a-hexahydroxy-6-methyl-1,12-dioxo-1,4,4a,5,5a,6,12,12a-octahydrotetracene-2-carboxamide], the “Cell toxicity of inhibitor concentrations” value in the data set on 293 cells [2] was “not cell toxic”. For the same molecule, the “Cytotoxicity, average of the independent experiments” value with COS-1 cells was “(32%)”. The “Cytotoxicity (blue cells/total cells x 100)” value in the data set on COS-1 cells (listed as N20) is 29% and 35%. Also, the Kd at WWP2 (SEQ ID NO:24) was determined as 10.6 µM.
